Experimental data published in ChEMBL document CHEMBL3046322, “Insect growth regulatory effects by diterpenes from Calceolaria talcana Grau & Ehrhart (Calceolariaceae: Scrophulariaceae) against Spodoptera frugiperda and Drosophila melanogaster” (2013).
Active and inactive are the calls of the source. No cut-off for these calls is given here.

Legend:
Spodoptera frugiperda [1] = experiment: Growth inhibitory activity against first-instar larval stage of Spodoptera frugiperda (fall armyworm) fed with compound incorporated diet assessed as length gained at 5 ug/ml after 7 days (reference value: 100%); type: functional; set-up: scale not given: the % may be the effect or the level left
Spodoptera frugiperda [2] = experiment: Growth inhibitory activity against first-instar larval stage of Spodoptera frugiperda (fall armyworm) fed with compound incorporated diet assessed as weight gained at 50 ug/ml after 7 days (reference value: 100%); type: functional; set-up: scale not given: the % may be the effect or the level left
Spodoptera frugiperda [3] = experiment: Growth inhibitory activity against first-instar larval stage of Spodoptera frugiperda (fall armyworm) fed with compound incorporated diet assessed as weight gained at 20 ug/ml after 7 days (reference value: 100%); type: functional; set-up: scale not given: the % may be the effect or the level left
Spodoptera frugiperda [4] = experiment: Growth inhibitory activity against first-instar larval stage of Spodoptera frugiperda (fall armyworm) fed with compound incorporated diet assessed as weight gained at 10 ug/ml after 7 days (reference value: 100%); type: functional; set-up: scale not given: the % may be the effect or the level left
Spodoptera frugiperda [5] = experiment: Growth inhibitory activity against first-instar larval stage of Spodoptera frugiperda (fall armyworm) fed with compound incorporated diet assessed as weight gained at 5 ug/ml after 7 days (reference value: 100%); type: functional; set-up: scale not given: the % may be the effect or the level left
Spodoptera frugiperda [6] = experiment: Growth inhibitory activity against Spodoptera frugiperda (fall armyworm) larvae fed with compound containing diet assessed as growth index at 35 ug/ml (reference value: 0.95 +/-0.02 no_unit); type: functional
Spodoptera frugiperda [7] = experiment: Growth inhibitory activity against Spodoptera frugiperda (fall armyworm) larvae fed with compound containing diet assessed as relative growth index at 35 ug/ml (reference value: 1.0 no_unit); type: functional
Spodoptera frugiperda [8] = experiment: Growth inhibitory activity against Spodoptera frugiperda (fall armyworm) larvae fed with compound containing diet assessed as relative growth index at 20 ug/ml (reference value: 1.0 no_unit); type: functional
Spodoptera frugiperda [9] = experiment: Growth inhibitory activity against Spodoptera frugiperda (fall armyworm) larvae fed with compound containing diet assessed as growth index at 20 ug/ml (reference value: 0.95 +/-0.02 no_unit); type: functional
Spodoptera frugiperda [10] = experiment: Growth inhibitory activity against Spodoptera frugiperda (fall armyworm) larvae fed with compound containing diet assessed as growth index at 10 ug/ml (reference value: 0.95 +/-0.02 no_unit); type: functional
Spodoptera frugiperda [11] = experiment: Growth inhibitory activity against Spodoptera frugiperda (fall armyworm) larvae fed with compound containing diet assessed as reduction in adult emergence at 20 ug/ml; type: functional
Spodoptera frugiperda [12] = experiment: Growth inhibitory activity against Spodoptera frugiperda (fall armyworm) larvae fed with compound containing diet assessed as reduction in pupae weight at 25 ug/ml; type: functional, organism-based
Spodoptera frugiperda [13] = experiment: Growth inhibitory activity against po dosed Spodoptera frugiperda (fall armyworm) larvae assessed as promotion of apolysis to fifth instar with ecdysis inhibition at 5 to 20 ug/ml; type: functional, organism-based
Drosophila melanogaster [14] = experiment: Insecticidal activity against Drosophila melanogaster larvae fed with compound incorporated diet assessed as mortality at 50 ug/ml after 72 hr by not choice test (reference value: 0%); type: functional
Drosophila melanogaster [15] = experiment: Insecticidal activity against Drosophila melanogaster larvae fed with compound incorporated diet assessed as mortality at 10 ug/ml after 72 hr by not choice test (reference value: 0%); type: functional
Spodoptera frugiperda [16] = experiment: Acute toxicity against last larval stage of Spodoptera frugiperda (fall armyworm) assessed as mortality applied topically onto abdomen measured after 7 days; type: functional; conditions: topical, 168 h
Spodoptera frugiperda [17] = experiment: Acute toxicity against last larval stage of Spodoptera frugiperda (fall armyworm) assessed as survival at 10 ug/ml applied topically onto abdomen measured after 24 hr (reference value: 98.8 +/-3.5%); type: functional
Spodoptera frugiperda [18] = experiment: Acute toxicity against last larval stage of Spodoptera frugiperda (fall armyworm) assessed as survival at 5 ug/ml applied topically onto abdomen measured after 24 hr (reference value: 98.8 +/-3.5%); type: functional
Spodoptera frugiperda [19] = experiment: Insecticidal activity against first-instar larval stage of Spodoptera frugiperda (fall armyworm) fed with compound incorporated diet assessed as mortality at 35 ug/ml after 21 days (reference value: 5.6%); type: functional; conditions: 504 h
Spodoptera frugiperda [20] = experiment: Growth inhibitory activity against first-instar larval stage of Spodoptera frugiperda (fall armyworm) fed with compound incorporated diet assessed as length gained at 20 ug/ml after 21 days (reference value: 100%); type: functional; set-up: scale not given: the % may be the effect or the level left
Spodoptera frugiperda [21] = experiment: Growth inhibitory activity against first-instar larval stage of Spodoptera frugiperda (fall armyworm) fed with compound incorporated diet assessed as length gained at 10 ug/ml after 21 days (reference value: 100%); type: functional
Spodoptera frugiperda [22] = experiment: Growth inhibitory activity against first-instar larval stage of Spodoptera frugiperda (fall armyworm) fed with compound incorporated diet assessed as weight gained at 50 ug/ml after 21 days (reference value: 100%); type: functional
Spodoptera frugiperda [23] = experiment: Growth inhibitory activity against first-instar larval stage of Spodoptera frugiperda (fall armyworm) fed with compound incorporated diet assessed as weight gained at 20 ug/ml after 21 days (reference value: 100%); type: functional
Spodoptera frugiperda [24] = experiment: Growth inhibitory activity against first-instar larval stage of Spodoptera frugiperda (fall armyworm) fed with compound incorporated diet assessed as weight gained at 10 ug/ml after 21 days (reference value: 100%); type: functional
Spodoptera frugiperda [25] = experiment: Growth inhibitory activity against first-instar larval stage of Spodoptera frugiperda (fall armyworm) fed with compound incorporated diet assessed as weight gained at 5 ug/ml after 21 days (reference value: 100%); type: functional
Spodoptera frugiperda [26] = experiment: Insecticidal activity against first-instar larval stage of Spodoptera frugiperda (fall armyworm) fed with compound incorporated diet assessed as mortality at 50 ug/ml after 7 days (reference value: 5.6%); type: functional; conditions: 168 h
Spodoptera frugiperda [27] = experiment: Insecticidal activity against first-instar larval stage of Spodoptera frugiperda (fall armyworm) fed with compound incorporated diet assessed as mortality at 20 ug/ml after 7 days (reference value: 5.6%); type: functional; conditions: 168 h
Spodoptera frugiperda [28] = experiment: Insecticidal activity against first-instar larval stage of Spodoptera frugiperda (fall armyworm) fed with compound incorporated diet assessed as mortality at 35 ug/ml after 7 days (reference value: 5.6%); type: functional; conditions: 168 h
Spodoptera frugiperda [29] = experiment: Insecticidal activity against first-instar larval stage of Spodoptera frugiperda (fall armyworm) fed with compound incorporated diet assessed as mortality at 10 ug/ml after 7 days (reference value: 5.6%); type: functional; conditions: 168 h
Spodoptera frugiperda [30] = experiment: Insecticidal activity against first-instar larval stage of Spodoptera frugiperda (fall armyworm) fed with compound incorporated diet assessed as mortality at 20 ug/ml after 21 days (reference value: 5.6%); type: functional; conditions: 504 h
Spodoptera frugiperda [31] = experiment: Insecticidal activity against first-instar larval stage of Spodoptera frugiperda (fall armyworm) fed with compound incorporated diet assessed as mortality at 10 ug/ml after 21 days (reference value: 5.6%); type: functional; conditions: 504 h
Spodoptera frugiperda [32] = experiment: Growth inhibitory activity against first-instar larval stage of Spodoptera frugiperda (fall armyworm) fed with compound incorporated diet assessed as length gained at 35 ug/ml after 21 days (reference value: 100%); type: functional
Spodoptera frugiperda [33] = experiment: Growth inhibitory activity against first-instar larval stage of Spodoptera frugiperda (fall armyworm) fed with compound incorporated diet assessed as length gained at 35 ug/ml after 7 days (reference value: 100%); type: functional
Spodoptera frugiperda [34] = experiment: Growth inhibitory activity against first-instar larval stage of Spodoptera frugiperda (fall armyworm) fed with compound incorporated diet assessed as length gained at 20 ug/ml after 7 days (reference value: 100%); type: functional
Spodoptera frugiperda [35] = experiment: Growth inhibitory activity against first-instar larval stage of Spodoptera frugiperda (fall armyworm) fed with compound incorporated diet assessed as length gained at 10 ug/ml after 7 days (reference value: 100%); type: functional
Spodoptera frugiperda [36] = experiment: Insecticidal activity against first-instar larval stage of Spodoptera frugiperda (fall armyworm) fed with compound incorporated diet assessed as mortality at 40 ug/ml after 7 days; type: functional, organism-based
Spodoptera frugiperda [37] = experiment: Insecticidal activity against first-instar larval stage of Spodoptera frugiperda (fall armyworm) fed with compound incorporated diet assessed as mortality at 50 to 100 ug/ml after 7 days; type: functional

Compound	Activity (Spodoptera frugiperda [1])	Activity (Spodoptera frugiperda [2])	Activity (Spodoptera frugiperda [3])	Activity (Spodoptera frugiperda [4])	Activity (Spodoptera frugiperda [5])	Growth_index (Spodoptera frugiperda [8])	Growth_index (Spodoptera frugiperda [9])	Growth_index (Spodoptera frugiperda [10])	inhibition at 20 µg/mL (Spodoptera frugiperda [11])	inhibition (Spodoptera frugiperda [12])	Activity (Spodoptera frugiperda [13])	mortality at 50 µg/mL (Drosophila melanogaster [14])	mortality at 10 µg/mL (Drosophila melanogaster [15])	Activity (Spodoptera frugiperda [17])	Activity (Spodoptera frugiperda [18])	mortality at 35 µg/mL (Spodoptera frugiperda [19])	Activity (Spodoptera frugiperda [20])	Length gained relative to control (Spodoptera frugiperda [21])	Weight gain relative to control (Spodoptera frugiperda [22])	Weight gain relative to control (Spodoptera frugiperda [23])	further results
CC(C)c1ccc2c(c1)CC[C@H]1[C@](C)(CO)CCC[C@]21C [POMIFERIN A]	88.3%	41.3%	56.2%	81.3%	89.5%	0.96	0.91	0.93	0%	Active	Active	77%	13.3%	69.1%	75%	25%	41.8%	59.4%	33.6%	50.6%	Growth_index (Spodoptera frugiperda [6]): 0.71; Growth_index (Spodoptera frugiperda [7]): 0.75; LD50 (Spodoptera frugiperda [16]): 17.5 µg/mL; Weight gain (% of control) (Spodoptera frugiperda [24]): 65.8%; Larval weight gain relative to control (Spodoptera frugiperda [25]): 93.5%; mortality at 50 µg/mL (Spodoptera frugiperda [26]): 83.3%; mortality at 20 µg/mL (Spodoptera frugiperda [27]): 46.8%; mortality at 35 µg/mL (Spodoptera frugiperda [28]): 63%; mortality at 10 µg/mL (Spodoptera frugiperda [29]): 41.7%; mortality at 20 µg/mL (Spodoptera frugiperda [30]): 15%; mortality at 10 µg/mL (Spodoptera frugiperda [31]): 5.6%; Length gained relative to control (Spodoptera frugiperda [32]): 37.4%; Length gained relative to control (Spodoptera frugiperda [33]): 42.5%; Length gained relative to control (Spodoptera frugiperda [34]): 64.2%; Larval length gained (% of control) (Spodoptera frugiperda [35]): 79%
C[C@H]1[C@H](C)CC[C@]2(C(=O)O)CC[C@]3(C)C(=CC[C@@H]4[C@@]5(C)CC[C@H](O)C(C)(C)[C@@H]5CC[C@]43C)[C@H]12 [URSOLIC ACID]	68.6%	32.5%	52.5%	53.3%	81.5%	0.29	0.28	0.69	0%	Active	Active	65.2%	7%	52.9%	73%	100%	28.6%	48.4%	0%	30.1%	mortality (Spodoptera frugiperda [36]): Active; mortality (Spodoptera frugiperda [37]): 100%; Weight gain (% of control) (Spodoptera frugiperda [24]): 47.4%; Larval weight gain relative to control (Spodoptera frugiperda [25]): 51.9%; mortality at 50 µg/mL (Spodoptera frugiperda [26]): 79.1%; mortality at 20 µg/mL (Spodoptera frugiperda [27]): 29.2%; mortality at 35 µg/mL (Spodoptera frugiperda [28]): 46.8%; mortality at 10 µg/mL (Spodoptera frugiperda [29]): 16.7%; mortality at 20 µg/mL (Spodoptera frugiperda [30]): 91.7%; mortality at 10 µg/mL (Spodoptera frugiperda [31]): 81.3%; Length gained relative to control (Spodoptera frugiperda [32]): 0%; Length gained relative to control (Spodoptera frugiperda [33]): 6.7%; Length gained relative to control (Spodoptera frugiperda [34]): 8.9%; Larval length gained (% of control) (Spodoptera frugiperda [35]): 10.7%
